Measurements taken from ChEMBL document CHEMBL4304805, “Antibacterial activity of 2-amino-4-hydroxypyrimidine-5-carboxylates and binding to Burkholderia pseudomallei 2-C-methyl-d-erythritol-2,4-cyclodiphosphate synthase” (Bioorg Med Chem Lett, 2019).

Columns and labels:
Type in all cases: functional
Details in all cases: read-out: DIZ
Klebsiella pneumoniae = experiment: Antibacterial activity against Klebsiella pneumoniae at 0.5 mM by Kirby Bauer disk diffusion method
[1] = tested on: Burkholderia thailandensis; experiment: Antibacterial activity against Burkholderia thailandensis at 0.5 mM by Kirby Bauer disk diffusion method
Bacillus cereus = experiment: Antibacterial activity against Bacillus cereus at 0.5 mM by Kirby Bauer disk diffusion method
Pseudomonas aeruginosa = experiment: Antibacterial activity against Pseudomonas aeruginosa at 0.5 mM by Kirby Bauer disk diffusion method
Micrococcus luteus = experiment: Antibacterial activity against Micrococcus luteus at 0.5 mM by Kirby Bauer disk diffusion method
[2] = tested on: Mycolicibacterium smegmatis; experiment: Antibacterial activity against Mycobacterium smegmatis at 0.5 mM by Kirby Bauer disk diffusion method
[3] = tested on: Corynebacterium pseudodiphtheriticum; experiment: Antibacterial activity against Corynebacterium pseudodiphtheriticum at 0.5 mM by Kirby Bauer disk diffusion method
Escherichia coli = experiment: Antibacterial activity against Escherichia coli at 0.5 mM by Kirby Bauer disk diffusion method
Corynebacterium xerosis = experiment: Antibacterial activity against Corynebacterium xerosis at 0.5 mM by Kirby Bauer disk diffusion method

Structure (SMILES)	zone of inhibition at 500 µM (Klebsiella pneumoniae) [mm]	zone of inhibition at 500 µM [1] [mm]	zone of inhibition at 500 µM (Bacillus cereus) [mm]	zone of inhibition at 500 µM (Pseudomonas aeruginosa) [mm]	zone of inhibition at 500 µM (Micrococcus luteus) [mm]	zone of inhibition at 500 µM [2] [mm]	zone of inhibition at 500 µM [3] [mm]	zone of inhibition at 500 µM (Escherichia coli) [mm]	zone of inhibition at 500 µM (Corynebacterium xerosis) [mm]
O=C(O)c1cnc(NCCc2ccccn2)nc1O	7	10	7	17	15	17	0	0	0
CCOC(=O)c1cnc(Nc2ccc(N3CCOCC3)cc2)nc1O	8	9	6	11	0	14	0	0	0
CCOC(=O)c1cnc(NCc2ccccc2Cl)nc1O	0	0	10	0	15	0	0	0	0
CCOC(=O)c1cnc(NCCc2ccc(F)cc2)nc1O	0	9	11	11	0	14	0	0	0
O=C(O)c1cnc(Nc2ccccc2)nc1O	0	0	0	0	0	15	0	0	0
CCOC(=O)c1cnc(Nc2ccc3cn[nH]c3c2)nc1O	12	11	10	12	0	17	0	7	7
CCOC(=O)c1cnc(NCC2CCCO2)nc1O (centres undefined)	0	11	0	0	0	15	0	0	0
CCOC(=O)c1cnc(Nc2ccc(-c3ccncc3)cc2)nc1O	0	0	0	0	0	16	0	0	0
CCOC(=O)c1cnc(Nc2cccc(-c3ccccc3)c2)nc1O	0	0	15	0	0	15	0	0	0
CCOC(=O)c1cnc(NCc2ccc(Cl)c(Cl)c2)nc1O	0	0	12	0	0	0	0	0	0
CCOC(=O)c1cnc(Nc2ccc3[nH]ncc3c2)nc1O	0	8	10	10	0	10	0	0	0
